Experimental data from paper PMC9693464 (Toxins, 2022).
Marks after values point to notes of the source that are not given here.

Key:
[1] = tested on: MoAb MNV80 (IgG1, κ); type: binding, mouse
[2] = tested on: MoAb MNV87 (IgG1, κ); type: binding, mouse
[3] = tested on: PoAbs (anti-NIV polyclonal antibodies, mouse serum); type: binding
[4] = cited from earlier work
[5] = tested on: monoclonal antibody (MoAb) prepared by Maragos et al.; details: cited from earlier work
[6] = tested on: animals; details: cited from earlier work

Row | Molecule | IC50 (fifty percent inhibitory concentration) with MoAb MNV80 [1] | IC50 (fifty percent inhibitory concentration) with MoAb MNV87 [2] | reactivity with MNV80 (in words) [1] | reactivity with MNV87 (in words) [2] | IC50 (fifty percent inhibitory concentration) with PoAb [3] | fold lower IC50 than that with NIV, MNV80 [1] | reaction range, concentrations between the IC20 and IC80 values, MNV80 [1] | fold lower IC50 than that with NIV, MNV87 [2] | reaction range, concentrations between the IC20 and IC80 values, MNV87 [2] | fold lower IC50 than that with NIV, PoAbs [3] | reaction range, concentrations between the IC20 and IC80 values, PoAbs [3] | temporary tolerable daily intake level ([4]; LOAEL with a safety factor of 1000) | cross-reactivity compared to reactivity with DON [5] | lowest observed adverse effect level [4] | IC50 of PoAb after the 1st booster immunization [3] | toxicity to animals compared with DON (in words) [6]
1 | CC(=O)OC[C@]12[C@H](O)C(=O)C(C)=C[C@H]1O[C@@H]1[C@H](O)C[C@@]2(C)[C@]12CO2 [15-Ac-DON, 15-acetyldeoxynivalenol] | >1 µg/mL | >1 µg/mL | – | – | – | – | – | – | – | – | – | – | – | – | – | –
2 | 4-acetylnivalenol [4-Ac-NIV] | >1 µg/mL | >1 µg/mL | not | not | >1000 ng/mL | – | – | – | – | – | – | – | – | – | – | –
3 | CC(=O)O[C@@H]1C[C@]2(C)[C@@]3(CO)[C@H](O)C(=O)C(C)=C[C@H]3O[C@H]1[C@@]21CO1 [3-Ac-DON, 3-acetyldeoxynivalenol] | >1 µg/mL | >1 µg/mL | – | – | – | – | – | – | – | – | – | – | – | – | – | –
4 | CC(=O)OC[C@]12[C@H](O)C(=O)C(C)=C[C@H]1O[C@@H]1[C@H](O)[C@@H](O)[C@@]2(C)[C@]12CO2 [15-Ac-NIV, 15-acetylnivalenol] | 0.018 µg/mL | 0.018 µg/mL | specifically reacted | specifically reacted | 11 ng/mL | 2 fold | 0.0028 to 0.1 µg/mL | 2 fold | 0.0024 to 0.095 µg/mL | 6.4 fold | 0.0017 to 0.085 µg/mL | – | – | – | – | –
5 | CC1=C[C@H]2O[C@@H]3[C@H](O)C[C@](C)([C@@]2(CO)[C@H](O)C1=O)[C@]31CO1 [DON, deoxynivalenol] | >1 µg/mL | >1 µg/mL | not | not | >1000 ng/mL | – | – | – | – | – | – | 1.0 μg/kg body weight | – | – | – | –
6 | CC1=C[C@H]2O[C@@H]3[C@H](O)[C@@H](O)[C@](C)([C@@]2(CO)[C@H](O)C1=O)[C@]31CO1 [NIV, nivalenol] | 0.036 µg/mL | 0.037 µg/mL | specifically reacted | specifically reacted | 70 * ng/mL | – | 0.0069 to 0.18 µg/mL | – | 0.0071 to 0.17 µg/mL | – | 0.012 to 0.95 µg/mL | – | 57.4% | 0.7 mg/kg body weight per day | 1.4 µg/mL | more toxic to animals than DON
